Source: article PMC10018501 (ACS Omega, 2023)
“And” between values parts separate entries of the source, which are not always exact repeats. Equal entries are not always repeated. Where two headings read alike, the source gives them in different places.

Columns and labels:
hBChE = hBChE (Equus caballus, UniProt P81908); experiment: In vitro hBChE inhibition assay; format: biochemical, human
hBACE-1 = hBACE-1 (Homo sapiens, UniProt P56817); experiment: biochemical
hAChE = hAChE (Homo sapiens, UniProt P22303); experiment: In vitro hAChE inhibition assay; format: biochemical; conditions: for selectivity index hBChE/hAChE: IC50 of hBChE/IC50 of hAChE
[1] = tested on: nondifferentiated SH-SY5Y cells; experiment: Neuroprotective estimation; format: cell-based; conditions: Homo sapiens, 24 h, read-out: cell viability
[2] = biological target: PAS-AChE (hAChE-PAS region) (Homo sapiens, UniProt P22303); experiment: Propidium iodide displacement assay; format: binding
[3] = n = 3, mean ± SEM
Aβ1–42 with hAChE = Aβ1–42 with hAChE (Homo sapiens, UniProt P22303); experiment: hAChE-induced Aβ aggregation inhibition thioflavin T assay; format: biochemical; conditions: compound 5, 10 and 20 μM; Aβ 10 μM
[4] = tested on: differentiated SH-SY5Y cells; experiment: Neurotoxicity estimation; format: cell-based; conditions: 10, 20, 40 and 80 μM, 24 h
in vitro = conditions: PAMPA, pH 7.4
Aβ1–42 = Aβ1–42 (Homo sapiens, UniProt P05067); experiment: Self-induced Aβ aggregation inhibition thioflavin T assay; format: biochemical; conditions: compound 5, 10 and 20 μM; Aβ 10 μM
[5] = tested on: ICV Aβ1–42-induced rat model; experiment: Aβ-induced Morris water maze test; conditions: SD-6 10 mg/kg, donepezil 5 mg/kg, orally 9 days; vs Aβ group
[6] = tested on: scopolamine-induced rat model; experiment: Scopolamine-induced Y-maze test; format: in vivo, Wistar rats; conditions: SD-6 2.5, 5, 10 mg/kg p.o.; donepezil 5 mg/kg p.o.; 7 days; vs scopolamine group
[7] = hAChE inhibitory activity (good/moderate/poor), class in words

hBChE, sequence (P81908 whole entry): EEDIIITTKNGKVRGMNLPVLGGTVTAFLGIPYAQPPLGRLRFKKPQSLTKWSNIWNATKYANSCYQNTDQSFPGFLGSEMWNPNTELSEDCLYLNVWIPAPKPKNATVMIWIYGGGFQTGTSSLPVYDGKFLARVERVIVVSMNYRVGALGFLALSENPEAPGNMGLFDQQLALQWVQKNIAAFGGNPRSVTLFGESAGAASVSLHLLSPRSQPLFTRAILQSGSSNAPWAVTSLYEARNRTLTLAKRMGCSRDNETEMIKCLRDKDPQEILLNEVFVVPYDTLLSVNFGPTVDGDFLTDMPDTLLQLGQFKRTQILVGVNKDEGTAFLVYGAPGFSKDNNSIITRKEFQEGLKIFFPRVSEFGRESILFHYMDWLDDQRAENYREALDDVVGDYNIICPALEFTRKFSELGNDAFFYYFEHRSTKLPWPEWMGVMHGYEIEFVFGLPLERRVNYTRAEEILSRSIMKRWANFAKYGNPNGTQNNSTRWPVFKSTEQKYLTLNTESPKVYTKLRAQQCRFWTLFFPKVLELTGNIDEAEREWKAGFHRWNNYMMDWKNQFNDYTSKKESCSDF
hAChE, sequence (P22303 32-617 isoform P22303-2 limits assumed): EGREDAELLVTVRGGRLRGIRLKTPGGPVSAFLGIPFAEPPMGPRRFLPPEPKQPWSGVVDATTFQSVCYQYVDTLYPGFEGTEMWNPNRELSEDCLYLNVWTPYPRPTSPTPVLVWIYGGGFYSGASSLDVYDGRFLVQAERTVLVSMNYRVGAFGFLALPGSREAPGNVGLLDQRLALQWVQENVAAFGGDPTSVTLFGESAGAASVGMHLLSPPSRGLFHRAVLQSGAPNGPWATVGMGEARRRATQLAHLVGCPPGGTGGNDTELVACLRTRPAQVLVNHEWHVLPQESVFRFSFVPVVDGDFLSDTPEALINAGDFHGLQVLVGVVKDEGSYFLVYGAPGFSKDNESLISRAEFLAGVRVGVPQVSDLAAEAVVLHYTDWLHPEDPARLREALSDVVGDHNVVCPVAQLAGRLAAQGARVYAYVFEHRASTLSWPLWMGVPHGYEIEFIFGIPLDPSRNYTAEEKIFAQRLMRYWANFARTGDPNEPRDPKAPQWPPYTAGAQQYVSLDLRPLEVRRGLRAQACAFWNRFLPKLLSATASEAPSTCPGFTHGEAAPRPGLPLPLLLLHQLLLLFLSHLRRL
PAS-AChE (hAChE-PAS region), sequence (P22303 32-617 isoform P22303-2 limits assumed): as above
hBACE-1, sequence (P56817 46-501): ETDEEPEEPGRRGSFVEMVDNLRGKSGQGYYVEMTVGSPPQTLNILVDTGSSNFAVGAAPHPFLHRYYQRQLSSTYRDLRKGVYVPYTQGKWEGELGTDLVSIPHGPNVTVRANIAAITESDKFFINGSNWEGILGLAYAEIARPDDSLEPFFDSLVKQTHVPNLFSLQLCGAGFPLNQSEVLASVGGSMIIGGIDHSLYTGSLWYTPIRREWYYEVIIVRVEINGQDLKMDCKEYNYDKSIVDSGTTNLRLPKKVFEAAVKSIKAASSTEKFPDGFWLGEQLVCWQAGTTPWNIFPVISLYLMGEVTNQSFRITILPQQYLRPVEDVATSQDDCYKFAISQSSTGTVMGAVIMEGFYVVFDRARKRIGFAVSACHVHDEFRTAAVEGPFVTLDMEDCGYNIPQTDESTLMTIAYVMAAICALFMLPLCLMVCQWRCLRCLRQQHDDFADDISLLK
Aβ1–42, sequence (P05067 672-713): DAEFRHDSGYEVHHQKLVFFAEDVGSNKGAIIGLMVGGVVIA
Aβ1–42 with hAChE, sequence (P22303 32-588 isoform P22303-2): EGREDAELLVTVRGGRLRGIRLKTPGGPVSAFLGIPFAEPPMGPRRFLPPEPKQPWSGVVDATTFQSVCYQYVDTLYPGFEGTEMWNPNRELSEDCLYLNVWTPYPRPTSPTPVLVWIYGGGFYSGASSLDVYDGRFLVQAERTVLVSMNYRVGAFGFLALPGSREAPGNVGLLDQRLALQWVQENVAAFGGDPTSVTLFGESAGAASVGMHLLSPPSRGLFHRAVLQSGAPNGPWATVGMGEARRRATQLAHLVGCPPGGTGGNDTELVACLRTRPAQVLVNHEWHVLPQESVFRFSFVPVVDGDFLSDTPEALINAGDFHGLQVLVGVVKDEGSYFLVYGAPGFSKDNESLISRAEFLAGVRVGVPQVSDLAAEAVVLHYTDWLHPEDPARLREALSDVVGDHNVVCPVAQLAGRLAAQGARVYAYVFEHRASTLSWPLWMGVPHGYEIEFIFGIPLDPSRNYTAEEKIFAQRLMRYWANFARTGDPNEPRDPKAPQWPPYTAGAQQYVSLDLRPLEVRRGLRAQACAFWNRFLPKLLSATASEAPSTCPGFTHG

Compound | IC50 (hBChE) [µM] | IC50 (hBACE-1; IC50 ± SEM hBACE-1, n = 3) [µM] | IC50 (hAChE; IC50 ± SEM hAChE, n = 3) [µM] | IC50 (hAChE; [7]) [µM] | IC50 (hBACE-1) [µM] | further results
S=c1oc(-c2ccc(Cl)cc2)nn1CN1CCN(Cc2ccccc2)CC1 [SD-1, 3-((4-Benzylpiperazin-1-yl)methyl)-5-(4-chlorophenyl)-1,3,4-oxadiazole-2(3H)-thione] | > 10 | 0.943 ± 0.018 | 1.26 ± 0.019 | 1 to 2 |  | 
O=[N+]([O-])c1ccc(-c2nn(CN3CCN(Cc4ccccc4)CC3)c(=S)o2)cc1 [SD-2, 3-((4-Benzylpiperazin-1-yl)methyl)-5-(4-nitrophenyl)-1,3,4-oxadiazole-2(3H)-thione] | > 10 | 0.811 ± 0.023 | 1.107 ± 0.008 | 1 to 2 |  | 
FC(F)(F)Oc1ccc(-c2nn(CN3CCN(Cc4ccccc4)CC3)c(=S)o2)cc1 [SD-3, 3-((4-Benzylpiperazin-1-yl)methyl)-5-(4-(trifluoromethoxy)phenyl)-1,3,4-oxadiazole-2(3H)-thione] | > 10 | 1.11 ± 0.016 | 1.335 ± 0.012 | 1 to 2 | 1 to 2.5 | 
N#Cc1cccc(-c2nn(CN3CCN(Cc4ccccc4)CC3)c(=S)o2)c1 [SD-4, 3-(4-((4-Benzylpiperazin-1-yl)methyl)-5-thioxo-4,5-dihydro-1,3,4-oxadiazol-2-yl)benzonitrile] | 1.65 ± 0.019 | 0.651 ± 0.014 | 1.077 ± 0.009 | < 1 |  | viability at 5 µM [1]: 59.1%; viability at 10 µM [1]: 71.6%; viability at 20 µM [1]: 82.5%; PAS-AChE propidium iodide displacement (%) ([2]; [I] = 10 μM): 24.6% and 24.661 ± 1.421%; PAS-AChE propidium iodide displacement (%) ([2]; [I] = 50 μM): 55.1% and 55.157 ± 1.247%; Pe(exp) PAMPA–BBB [3]: 6.127 10^–6 cm/s; % Aβ aggregation inhibition, hAChE-induced (Aβ1–42 with hAChE): 38–79%; neurotoxicity (MTT, cell population and morphology) [4]: non-neurotoxic; Papp (in vitro): 6.127 ± 0.019 ×10⁻⁶ cm/s; % Aβ aggregation inhibition, self-induced (Aβ1–42): 20–61%; selectivity index hBChE/hAChE (hAChE): 1.534
O=[N+]([O-])c1ccccc1-c1nn(CN2CCN(Cc3ccccc3)CC2)c(=S)o1 [SD-5, 3-((4-Benzylpiperazin-1-yl)methyl)-5-(2-nitrophenyl)-1,3,4-oxadiazole-2(3H)-thione] | > 10 | 1.17 ± 0.021 | 1.89 ± 0.031 |  | 1 to 2.5 | hAChE inhibitory activity (good/moderate/poor) (hAChE; class in words): moderate to poor
S=c1oc(-c2cccc(Cl)c2)nn1CN1CCN(Cc2ccccc2)CC1 [SD-7, 3-((4-Benzylpiperazin-1-yl)methyl)-5-(3-chlorophenyl)-1,3,4-oxadiazole-2(3H)-thione] | > 10 | 0.885 ± 0.013 | 1.42 ± 0.022 | < 1 |  | 
FC(F)(F)c1ccc(-c2nn(CN3CCN(Cc4ccccc4)CC3)c(=S)o2)cc1 [SD-8, 3-((4-Benzylpiperazin-1-yl)methyl)-5-(4-(trifluoromethyl)phenyl)-1,3,4-oxadiazole-2(3H)-thione] | 2.42 ± 0.041 | 0.701 ± 0.019 | 1.32 ± 0.018 | 1 to 2 |  | PAS-AChE propidium iodide displacement (%) ([2]; [I] = 10 μM): 21.446 ± 1.147%; PAS-AChE propidium iodide displacement (%) ([2]; [I] = 10 μM, listed as SD-08): 21.4%; PAS-AChE propidium iodide displacement (%) ([2]; [I] = 50 μM): 41.709 ± 1.271%; PAS-AChE propidium iodide displacement (%) ([2]; [I] = 50 μM, listed as SD-08): 41.7%; Pe(exp) PAMPA–BBB [3]: 5.019 10^–6 cm/s; Papp (in vitro): 5.019 ± 0.033 ×10⁻⁶ cm/s; selectivity index hBChE/hAChE (hAChE): 1.835
S=c1oc(-c2ccc(Cl)cc2Cl)nn1CN1CCN(Cc2ccccc2)CC1 [SD-9, 3-((4-Benzylpiperazin-1-yl)methyl)-5-(2,4-dichlorophenyl)-1,3,4-oxadiazole-2(3H)-thione] | > 10 | 1.41 ± 0.031 | 2.11 ± 0.037 |  | 1 to 2.5 | hAChE inhibitory activity (good/moderate/poor) (hAChE; class in words): moderate to poor
Oc1ccc(-c2nn(CN3CCN(Cc4ccccc4)CC3)c(=S)o2)cc1 [SD-10, 3-((4-Benzylpiperazin-1-yl)methyl)-5-(4-hydroxyphenyl)-1,3,4-oxadiazole-2(3H)-thione] | > 10 | > 5 | 1.22 ± 0.013 | 1 to 2 |  | 
Nc1ccc(-c2nn(CN3CCN(Cc4ccccc4)CC3)c(=S)o2)cc1 [SD-11, 5-(4-Aminophenyl)-3-((4-benzylpiperazin-1-yl)methyl)-1,3,4-oxadiazole-2(3H)-thione] | > 10 | > 5 | 1.22 ± 0.027 | 1 to 2 |  | 
COc1cccc(-c2nn(CN3CCN(Cc4ccccc4)CC3)c(=S)o2)c1 [SD-12, 3-((4-Benzylpiperazin-1-yl)methyl)-5-(3-methoxyphenyl)-1,3,4-oxadiazole-2(3H)-thione] | > 10 | 1.21 ± 0.016 | 1.94 ± 0.024 | 1 to 2 | 1 to 2.5 | 
COc1ccc(-c2nn(CN3CCN(Cc4ccccc4)CC3)c(=S)o2)cc1 [SD-13, 3-((4-Benzylpiperazin-1-yl)methyl)-5-(4-methoxyphenyl)-1,3,4-oxadiazole-2(3H)-thione] | > 10 | 1.358 ± 0.012 | 1.53 ± 0.028 | 1 to 2 | 1 to 2.5 | 
O=[N+]([O-])c1cc(-c2nn(CN3CCN(Cc4ccccc4)CC3)c(=S)o2)ccc1Cl [SD-14, 3-((4-Benzylpiperazin-1-yl)methyl)-5-(4-chloro-3-nitrophenyl)-1,3,4-oxadiazole-2(3H)-thione] | 1.94 ± 0.033 | 0.806 ± 0.011 | 1.14 ± 0.018 | 1 to 2 |  | PAS-AChE propidium iodide displacement (%) ([2]; [I] = 10 μM): 19.7% and 19.773 ± 1.216%; PAS-AChE propidium iodide displacement (%) ([2]; [I] = 50 μM): 36.8% and 36.841 ± 1.069%; Pe(exp) PAMPA–BBB [3]: 4.848 10^–6 cm/s; Papp (in vitro): 4.858 ± 0.016 ×10⁻⁶ cm/s; selectivity index hBChE/hAChE (hAChE): 1.710
O=[N+]([O-])c1ccc(-c2nn(CN3CCN(Cc4ccccc4)CC3)c(=S)o2)c([N+](=O)[O-])c1 [SD-15, 3-((4-Benzylpiperazin-1-yl)methyl)-5-(2,4-dinitrophenyl)-1,3,4-oxadiazole-2(3H)-thione] | > 10 | 1.45 ± 0.022 | 1.42 ± 0.023 |  | 1 to 2.5 | hAChE inhibitory activity (good/moderate/poor) (hAChE; class in words): moderate to poor
S=c1oc(-c2ccccc2Br)nn1CN1CCN(Cc2ccccc2)CC1 [SD-16, 3-((4-Benzylpiperazin-1-yl)methyl)-5-(2-bromophenyl)-1,3,4-oxadiazole-2(3H)-thione] | > 10 | 1.8 ± 0.029 | 2.41 ± 0.027 |  | 1 to 2.5 | hAChE inhibitory activity (good/moderate/poor) (hAChE; class in words): moderate to poor
Oc1ccc(-c2nn(CN3CCN(Cc4ccccc4)CC3)c(=S)o2)c(O)c1 [SD-17, 3-((4-Benzylpiperazin-1-yl)methyl)-5-(2,4-dihydroxyphenyl)-1,3,4-oxadiazole-2(3H)-thione] | > 10 | 2.15 ± 0.034 | 1.792 ± 0.015 |  | 1 to 2.5 | hAChE inhibitory activity (good/moderate/poor) (hAChE; class in words): moderate to poor
COc1cc2c(cc1OC)C(=O)C(CC1CCN(Cc3ccccc3)CC1)C2 (stereo not shown) [donepezil, reference compound] |  |  |  |  |  | escape latency time (ELT) [5]: maximum decline in ELT; time spent in the platform zone [5]: significantly (^bp < 0.001) higher; total number of entries to the platform zone [5]: significantly (^bp < 0.001) different from the Aβ-treated animal group; % spontaneous alterations [6]: significant (^b,c,dp < 0.001) increase; % Aβ aggregation inhibition, self-induced (Aβ1–42): 21–37%
